Test results as given in ChEMBL document CHEMBL1201862, “PubChem BioAssay data set” (2004).
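How tested: cells in 96-well plates exposed to compound for 48 hours at five concentrations. The concentration for 50% growth inhibition is given as GI50.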 Activity calls are given as the source filed them. Cut-off read from the data, not from the text of the source: active = GI50 up to about 1.1 µM and inactive = higher.

Key:
Test in all cases: NCI tumour cell line growth inhibition, 48 h
KM-20L2 = system: KM-20L2
Malme-3M = system: Malme-3M
EKVX = system: EKVX
T47D = system: T47D
HL-60 = system: HL-60
UACC-257 = system: UACC-257
UACC-62 = system: UACC-62
COLO 205 = system: COLO 205
SNB-19 = system: SNB-19
NCI-H460 = system: NCI-H460
SK-MEL-2 = system: SK-MEL-2
NCI/ADR-RES = system: NCI/ADR-RES
NCI-H226 = system: NCI-H226
K562 = system: K562
IGROV-1 = system: IGROV-1
CAKI-1 = system: CAKI-1
ACHN = system: ACHN
MDA-N = system: MDA-N
Hs-578T = system: Hs-578T
UO-31 = system: UO-31

Measured: GI50

O=C(CSc1ncnc2[nH]cnc12)c1ccccc1
inactive: KM-20L2 > 100 µM | Malme-3M > 100 µM | EKVX > 100 µM | T47D > 100 µM | HL-60 > 100 µM | UACC-257 > 100 µM | UACC-62 > 100 µM | COLO 205 > 91 µM | SNB-19 > 100 µM | NCI-H460 > 100 µM | SK-MEL-2 > 43.2 µM | NCI/ADR-RES 96.4 µM | NCI-H226 > 100 µM | K562 41.3 µM | IGROV-1 > 100 µM | CAKI-1 75.2 µM | ACHN > 100 µM | MDA-N 86.3 µM | Hs-578T > 100 µM | UO-31 > 95.7 µM

COC1(OC)C2(Cl)C(Cl)=C(Cl)C1(Cl)C1C=CC=CC12 (centres undefined)
inactive: KM-20L2 35.2 µM | Malme-3M 31.6 µM | EKVX > 100 µM | HL-60 55.8 µM | UACC-257 > 100 µM | UACC-62 73.5 µM | COLO 205 69.8 µM | SNB-19 > 100 µM | NCI-H460 > 100 µM | SK-MEL-2 24.1 µM | NCI-H226 > 100 µM | K562 51.6 µM | IGROV-1 > 100 µM | CAKI-1 45.7 µM | ACHN > 100 µM | UO-31 > 100 µM

COc1cccc(NC(=O)CC(=O)N2N=C(N(CCC#N)c3ccccc3C)CC2c2ccccc2)c1 (centres undefined)
inactive: KM-20L2 > 100 µM | Malme-3M > 100 µM | EKVX > 100 µM | HL-60 > 100 µM | UACC-257 > 100 µM | UACC-62 > 100 µM | COLO 205 > 100 µM | SNB-19 > 100 µM | NCI-H460 > 100 µM | SK-MEL-2 > 100 µM | NCI-H226 > 100 µM | K562 > 100 µM | IGROV-1 > 100 µM | CAKI-1 > 100 µM | ACHN > 100 µM | UO-31 > 100 µM

Nc1ncnc2c1ncn2C1OC(CSCC(F)(F)F)C(O)C1O (centres undefined)
inactive: KM-20L2 > 100 µM | Malme-3M > 100 µM | EKVX > 100 µM | HL-60 > 100 µM | UACC-257 > 100 µM | UACC-62 > 100 µM | COLO 205 > 100 µM | SNB-19 > 100 µM | NCI-H460 > 100 µM | SK-MEL-2 > 100 µM | NCI-H226 > 100 µM | K562 > 100 µM | IGROV-1 > 100 µM | CAKI-1 > 100 µM | ACHN > 100 µM | UO-31 > 100 µM

O=C(O)CNc1c2ccccc2[n+]([O-])c2ccccc12
inactive: KM-20L2 > 100 µM | Malme-3M 61.4 µM | EKVX > 100 µM | HL-60 18.7 µM | UACC-257 > 100 µM | UACC-62 67.8 µM | COLO 205 72.3 µM | SNB-19 > 100 µM | NCI-H460 > 100 µM | SK-MEL-2 > 100 µM | NCI-H226 > 100 µM | K562 13.9 µM | IGROV-1 > 100 µM | CAKI-1 > 100 µM | ACHN 65.5 µM | UO-31 43.4 µM
